Reference: ChEMBL document CHEMBL3507680, “University of Dundee, Gates Library screen for HepG2 cell viability”

experiment: Human HepG2 cell viability assay in 384 well format; type: toxicity, cell-based; parameters: dose 125 nL, time 70.5 hour; cytotoxicity at 70.5 h: concentration not given beside the values; conditions: HepG2 cells, read-out: Inhibition

SMILES | cytotoxicity at 70.5 h
CCOCC1CN(S(=O)(=O)N(C)C)Cc2cnn(C)c21 (stereo unspecified) | -6.39%
CC1N(CC2CC2)C(=O)COC12CCN(C(=O)c1ccno1)CC2 (stereo unspecified) | -4.07%
CCC(Nc1ccc(CCN2CCOCC2)cc1)C(N)=O (stereo unspecified) | -19.6%
COC(=O)c1ccc(CN(C)C(=O)c2cnsn2)cc1 | -14.6%
c1cnc(NCc2nnn3c2CN(Cc2ccco2)CCC3)nc1 | -109%
c1csc(-c2noc(CNCCn3cccn3)n2)c1 | -4.45%
Cn1cc(C2COC3(CCN(C(=O)c4cnccn4)CC3)C2)cn1 (stereo unspecified) | -12.7%
CN(Cc1csc(-c2ccccc2)n1)Cc1ncccc1C(=O)O | 11.5%
O=C(NCC(Cc1cccc(F)c1)N1CCCC1=O)c1ccc[nH]c1=O (stereo unspecified) | -16.4%
O=S(=O)(NCCN1CC=CC1)c1cncc(Cl)c1 | -0.531%
Cc1ccc(-c2nccn2-c2ccc(OC3CCN(C)CC3)cc2)o1 | 17%
COc1c(C)cnc(CN(C)C(=O)c2ccccc2O)c1C | 0.1%
O=C(NCCSc1ccccc1F)NCc1cccnc1 | -6.59%
CN1CCC(c2nnc3ccc(C(=O)NC4CCCC4)cn23)C1 (stereo unspecified) | 15%
CC(C)N1CCCC(c2cc(C(F)(F)F)nc3nccn23)C1 (stereo unspecified) | -0.494%
CC1(C)CNC(=O)c2nc(CCN3CCC(C(N)=O)CC3)[nH]c2C1 | -11.8%
O=C(NCCc1cccnc1)Nc1cc(C(F)(F)F)c[nH]c1=O | 14.6%
Cc1cc(C)n(-c2ccc3nnc(C)n3n2)n1 | 18%
CCNC(=O)N1CCN(C(=O)c2cc(Cl)cc3cccnc23)CC1 | -9.51%
CC(C)c1cc(CSCCC(=O)O)no1 | -4.33%
CC(C)(NC(=O)c1cnc(C(C)(C)C)s1)C(N)=O | 28.5%
CC(C)CN1CCS(=O)(=O)[C@@H]2CCN(S(=O)(=O)N(C)C)CC[C@@H]21 | -5.76%
Cn1cnnc1SCc1cc2c(cc1Br)OCO2 | -1.06%

SMILES | cytotoxicity at 70.5 h
CC(=O)N[C@@H]1CN(C(=O)c2cc3sccc3[nH]2)C[C@H]1c1ccc(C)o1 | -3.33%
CSCCc1c(-c2ccccc2)ncn1CC(C)(C)N1CCCC1 | -10.9%
COc1ccc(CN(Cc2cncn2C)CC2CCCO2)cc1OC (stereo unspecified) | -10.3%
CCCOc1ccc2c(c1)OCC(C(=O)NC(C)Cn1cccn1)=C2 (stereo unspecified) | 1.23%
Cc1cnn(CCNCC(O)COc2ccc(Cl)cc2)c1 (stereo unspecified) | 2.45%
O=C(NCCNc1cnccn1)N1CCN(c2nccs2)CC1 | -8.94%
c1csc(-c2noc(C3CN(Cc4ccc5c(c4)CCO5)C3)n2)c1 | -9.73%
CCN1CCCc2cc(CN3CCc4c(nc(C)[nH]c4=O)C3)ccc21 | -3.71%
Cc1nc(C(=O)N2CCCC2c2cncc(CN3CCCC3)n2)co1 (stereo unspecified) | -1.27%
COc1ccc(NC(C)c2ccc(C#N)cc2)cc1N1CCCC1=O (stereo unspecified) | 1.58%
O=C(C1CC=CC1)N1CCCn2nnc(CNc3ncccn3)c2C1 | 0.685%
Cc1n[nH]c(C)c1C1COCCN1C(=O)c1cc(F)ccc1F (stereo unspecified) | -8.76%
CN(C)C(=O)c1ccc(OC2CCOCC2)cc1 | -15.1%
CCOc1nnc(CN(C)CC2CCCN2c2cccnn2)s1 (stereo unspecified) | -4.16%
CCN(C(c1cccnc1)c1ccc2c(c1)CCO2)S(C)(=O)=O (stereo unspecified) | -4.03%
COc1cccc([C@@H]2CCN(Cc3cn(C)c4ccccc34)C[C@H]2O)c1 | -10.7%
COCC(=O)NCC1CCN(Cc2ccsc2)CC1 | 33.7%
CCC(CC)C(=O)N1CCOC2(CNC2)C1 | 6.77%
CC(C)CN1CCO[C@H]2CCN(c3cnccn3)CC[C@@H]21 | -8.81%
C=C(C)CN(CC)Cc1nc(C(C)(C)C)no1 | 10.8%
CC(=O)N1CCCC1c1csc(Nc2cnccn2)n1 (stereo unspecified) | -4.91%
CC(NC(=O)NCCCN(C)S(C)(=O)=O)c1ccc(C#N)cc1 (stereo unspecified) | -4.16%
O=C(CCn1ccc2ncccc2c1=O)N1CCCC1 | 0.26%
